{"source": "patent US20120230918A1", "about": "“NON-INVASIVE IN VIVO OPTICAL IMAGING METHOD” (Hoffmann-La-Roche Inc., priority 2009, published 2012)", "key": {"[1]": {"settings": "injected i.v. into mice; cited from earlier work"}, "[2]": {"assay": "Fluorescence signal intensity of ICG in eye, liver, kidney, brain and tumor region of a mouse with s.c. Calu3 tumor", "settings": "second experiment, ICG i.v., BALB/c nude mouse with s.c. Calu3 tumor", "protocol": "(§1) We first evaluated the technical feasibility of this new approach by using indocyanine green (ICG) a fluorescent dye. […] Female BALB/c nude mice received inhalation anaesthesia, were placed in the imaging chamber (FIG. 3) and injected i.v. with a dose of 20 μg/200 μl. The fluorescence signal intensity measurements in the eye was started 10 sec before i.v. injection of ICG and images were recorded every second with an acquisition time of 500 ms over a period of 8 minutes. ICG was excited with light at a wavelength range from 671 to 705 nm and the emission was detected at 820 nm. […] In a second experiment, a BALB/c nude mouse with a s.c. growing tumor (Calu3) was injected with ICG i.v. and signal intensity in eye, liver, kidney, brain and the tumor region was monitored.\n(§2) The fluorescence signal intensity in Calu3 xenograft was measured as described before. ROI were identified for the eye, liver, kidney, brain and s.c. growing tumor using the anatomical pictures of the subjects. The fluorescence intensity from these regions were then calculated and plotted as a function of time.\n(§3) In a second experiment, a BALB/c nude mouse with a s.c. growing tumor (Calu3) was injected with ICG i.v. and signal intensity in eye, liver, kidney, brain and the tumor region was monitored."}, "in vivo [3]": {"assay": "in vivo", "settings": "BALB/c nude, mouse, eye (fluorescence signal intensity in the eye region), iv, 20 μg/200 μl", "protocol": "as §1, §2, §3"}, "in vivo [4]": {"assay": "in vivo", "settings": "female, BALB/c nude, mouse, eye region (fluorescence signal), iv, 20 μg/200 μl", "protocol": "Female BALB/c nude mice received inhalation anaesthesia, were placed in the imaging chamber (FIG. 3) and injected i.v. with a dose of 20 μg/200 μl. The fluorescence signal intensity measurements in the eye was started 10 sec before i.v. injection of ICG and images were recorded every second with an acquisition time of 500 ms over a period of 8 minutes. ICG was excited with light at a wavelength range from 671 to 705 nm and the emission was detected at 820 nm.\nFemale BALB/c nude received inhalation anesthesia, were placed into the imaging chamber and injected i.v. with ICG (20 μg/200 μl). The fluorescence signal intensity was measured starting 10 sec before injection of ICG. Images in the region of interest were recorded every second with an acquisition time of 500 ms over a period of 8 min. ICG was excited with light at a wavelength range from 671 to 705 nm and the emission was detected at 820 nm. The fluorescence intensity from these regions were then calculated and plotted as a function of time.\nFemale BALB/c nude mice received inhalation anesthesia, were placed in the imaging chamber (FIG. 3) and injected i.v. with a dose of 20 μg/200 μl."}, "[5]": {"settings": "after i.v. injection; cited from earlier work"}, "[6]": {"tested_on": "BMP-2 induced upregulation of Hepcidin mRNA in HepG2 cells", "assay": "Block of BMP-2 induced upregulation of Hepcidin mRNA in HepG2 cells", "type": "cell-based", "settings": "in vitro"}}}
{"molecule": "CC1(C)C(/C=C/C=C/C=C/C=C2\\N(CCCCS(=O)(=O)O)c3ccc4ccccc4c3C2(C)C)=[N+](CCCCS(=O)(=O)[O-])c2ccc3ccccc3c21", "note": "[ICG, Indocyanine green]", "values": [{"measurement": "organ of accumulation", "setting": "[1]", "result": "accumulates in the liver"}, {"measurement": "time in which cleared from the circulation", "setting": "[1]", "result": "2 to 4", "unit": "min"}, {"measurement": "accumulation in the liver, time of reaching a plateau", "setting": "[2]", "result": 3.8, "unit": "min"}, {"measurement": "Tmax", "setting": "in vivo [3]", "result": 1.2, "unit": "min"}, {"measurement": "half-life", "setting": "in vivo [3]", "result": 5.4, "unit": "min"}, {"measurement": "Tmax", "setting": "in vivo [4]", "result": 2, "unit": "min"}, {"measurement": "half-life", "setting": "in vivo [4]", "result": 6.6, "unit": "min"}]}
{"molecule": "NCCC(O)(P(=O)(O)O)P(=O)(O)O", "note": "[Pamidronate]", "values": [{"measurement": "serum half life", "setting": "[5]", "result": "20 to 30", "unit": "min"}]}
{"molecule": "non-labeled Hemojuvelin: non-labeled Hemojuvelin (protein, UniProt Q6ZVN8 36-400, looked up) Hemojuvelin: QCKILRCNAEYVSSTLSLRGGGSSGALRGGGGGGRGGGVGSGGLCRALRSYALCTRRTARTCRGDLAFHSAVHGIEDLMIQHNCSRQGPTAPPPPRGPALPGAGSGLPAPDPCDYEGRFSRLHGRPPGFLHCASFGDPHVRSFHHHFHTCRVQGAWPLLDNDFLFVQATSSPMALGANATATRKLTIIFKNMQECIDQKVYQAEVDNLPVAFEDGSINGGDRPGGSSLSIQTANPGNHVEIQAAYIGTTIIIRQTAGQLSFSIKVAEDVAMAFSAEQDLQLCVGGCPPSQRLSRSERNRRGAITIDTARRLCKEGLPVEDAYFHSCVFDVLISGDPNFTVAAQAALEDARAFLPDLEKLHLFPSD", "values": [{"measurement": "ability to block BMP-2 induced upregulation of Hepcidin mRNA, non-labeled versus Cy5-labeled", "setting": "[6]", "result": "did not differ"}]}
{"molecule": "Cy5-labeled Hemojuvelin: Hemojuvelin labeled with Cy5 (conjugate, UniProt Q6ZVN8 36-400, looked up, Cy5 label) Hemojuvelin: QCKILRCNAEYVSSTLSLRGGGSSGALRGGGGGGRGGGVGSGGLCRALRSYALCTRRTARTCRGDLAFHSAVHGIEDLMIQHNCSRQGPTAPPPPRGPALPGAGSGLPAPDPCDYEGRFSRLHGRPPGFLHCASFGDPHVRSFHHHFHTCRVQGAWPLLDNDFLFVQATSSPMALGANATATRKLTIIFKNMQECIDQKVYQAEVDNLPVAFEDGSINGGDRPGGSSLSIQTANPGNHVEIQAAYIGTTIIIRQTAGQLSFSIKVAEDVAMAFSAEQDLQLCVGGCPPSQRLSRSERNRRGAITIDTARRLCKEGLPVEDAYFHSCVFDVLISGDPNFTVAAQAALEDARAFLPDLEKLHLFPSD", "values": [{"measurement": "ability to block BMP-2 induced upregulation of Hepcidin mRNA, non-labeled versus Cy5-labeled", "setting": "[6]", "result": "did not differ"}]}
